Assay [1] addresses LSD1 (Homo sapiens (Human), UniProt O60341). In words: In vitro enzyme inhibition assay - LSD1 (HTRF). Format: biochemical. A general note: In TR-FRET formats the signal depends on donor and acceptor labels being close together.
Assay [2] deals with NCI-H1417 cells. In words: In vitro cell inhibition assay - H1417 cell proliferation (CellTiter-Glo). Format: cell-based. Conditions: Homo sapiens, NCI-H1417, H1417 small cell lung cancer cell proliferation. The method, boiled down: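 Cells exposed to 8 compound concentrations (5-fold dilutions) in BEGM with 10% FBS for 7 days at 37° C., 5% CO2. Viable cells measured by CellTiter-Glo luminescence; inhibition versus no-inhibitor and no-cell controls, IC50 fitted.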
In general terms: Cellular ATP, detected with luciferase, serves as a proxy for viable cell number.

Assay [3] deals with HDAC8 (Homo sapiens (Human), UniProt Q9BY41). In words: In vitro enzyme inhibition assay - HDAC (HDAC-Glo I/II), HDAC8. Particulars: read-out: HDAC IC50 (nM) HDAC 8. Type of assay: biochemical. On the procedure: 2. In Vitro Enzyme Inhibition Assay—HDAC
Sequence of HDAC8 (Q9BY41 whole entry, canonical isoform): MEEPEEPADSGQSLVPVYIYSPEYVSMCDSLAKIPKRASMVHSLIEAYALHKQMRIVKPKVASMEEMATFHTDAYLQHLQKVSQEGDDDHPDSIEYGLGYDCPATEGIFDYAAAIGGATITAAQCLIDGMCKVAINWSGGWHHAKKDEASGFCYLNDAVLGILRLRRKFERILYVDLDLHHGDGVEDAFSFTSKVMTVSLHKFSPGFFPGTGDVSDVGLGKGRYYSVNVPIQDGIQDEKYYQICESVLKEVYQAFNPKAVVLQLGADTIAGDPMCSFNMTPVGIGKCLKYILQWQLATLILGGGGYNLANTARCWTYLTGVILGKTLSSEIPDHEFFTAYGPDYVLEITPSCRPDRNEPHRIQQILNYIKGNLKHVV
The effect of the compound on the enzymatic activity of pan-HDAC and two isoforms (HDAC1 and HDAC8) was examined using the HDAC-Glo I/II Assay and Screening System assay to assess the level of inhibition of HDAC protease activity and selectivity in each isoform. The proteins and detection reagents were from the HDAC-Glo™ I/II Assay and Screening System (Promega). A 1 mM stock solution of the compound was prepared in DMSO and diluted in a 5-fold gradient to create a series of 8 concentrations, and a specific volume of the highest concentration was diluted 25 times with HDAC Buffer to obtain 4× working solution of the compound. […] The 384-well plate was then read on a multifunctional microplate reader, with the Luminescence channel selected to record Luminescence values (RLU). The inhibition rate was calculated using the following formula: […]
Note: ‘Negative’ refers to the group without the inhibitor; ‘Blank’ refers to the group without the enzyme.
The IC50 value was calculated by fitting the inhibition rate by GraphPad Prism software, employing log (inhibitor) vs. response-Variable Slope (four parameters) model.

The target of assay [4] is pan-HDAC. In words: In vitro enzyme inhibition assay - HDAC (HDAC-Glo I/II), pan-HDAC. Format: biochemical. Put shortly:
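Eight compound concentrations (5-fold steps from a 1 mM DMSO stock) tested against pan-HDAC, HDAC1 and HDAC8 with HDAC-Glo I/II reagents, luminescence read-out. Percent inhibition normalized to no-inhibitor and no-enzyme wells; IC50 derived by four-parameter logistic fit.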

The test system of assay [5] is NCI-H69 cells. In words: In vitro cell inhibition assay - NCI-H69 cell proliferation (CellTiter-Glo). Format: cell-based. Particulars: Homo sapiens, NCI-H69, H69 small cell lung cancer cell proliferation. Put shortly:
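7-day exposure at 37° C., 5% CO2 to compounds serially diluted 5-fold (8 concentrations) in RPMI-640 containing 20% FBS, after overnight attachment at 1×10^3 cells/well. Read-out: CellTiter-Glo luminescence (RLU); IC50 from curve fit of inhibition rate.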

Counter-ions that a name gives are not always drawn.

As to `N#Cc1ccc(-c2nc(N3CCC(N)CC3)cc(O)c2-c2ccc(OCCCCCCC(=O)NO)c(O)c2)cc1F` [Example 19, 7-(4-(6-(4-aminopiperidin-1-yl)-2-(4-cyano-3-fluorophenyl)-4-hydroxypyridin-3-yl)-2-hydroxyphenoxy)-N-hydroxyheptanamide hydrochloride], the IC50 (commonly the concentration needed to halve the response being measured) was 0.86 nM in assay [1], 2820 nM in assay [2], 221 nM in assay [3] and 174 nM in assay [4].

As to `N#Cc1ccc(-c2c(-c3ccc(OCCCCCCC(=O)NO)c(O)c3)cnc(N3CCC(N)CC3)c2C#N)cc1F` [Example 25, 7-(4-(6-(4-Aminopiperidin-1-yl)-5-cyano-4-(4-cyano-3-fluorophenyl)pyridin-3-yl)-2-hydroxyphenoxy)-N-hydroxyheptanamide hydrochloride], the IC50 in assay [1] was determined as 0.23 nM; in assay [2], 50.1 nM; in assay [3] it was 129 nM; in assay [4], 6.66 nM.

In the case of `N#Cc1ccc(-c2cc(OCc3ccc(/C=C/C(=O)NO)cc3)cc(N3CCC(N)CC3)n2)cc1F` [Example 69, (E)-3-(4-(((2-(4-Aminopiperidin-1-yl)-6-(4-cyano-3-fluorophenyl)pyridin-4-yl)oxy)methyl)phenyl)-N-hydroxyacrylamide formate], the IC50 was above 1000 nM in assay [1], 198 nM in assay [3] and 30.1 nM in assay [4].

For `COc1ccc(-c2cnc(N3CCC(NCc4ccc(/C=C/C(=O)NO)cc4F)CC3)c(C#N)c2-c2ccc(C#N)nc2)cc1O` [Example 252, (E)-3-(4-(((1-(3′,6-Dicyano-5′-(3-hydroxy-4-methoxyphenyl)-[3,4′-bipyridin]-2′-yl)piperidin-4-yl)amino)methyl)-3-fluorophenyl)-N-hydroxyacrylamide formate], the half-maximal inhibitory concentration (IC50) in assay [1] was found to be 3.24 nM; in assay [2] it was 1.86 nM; in assay [5] it was 4.32 nM; in assay [4] it was 1.03 nM.

In the case of `COC(=O)c1ccc(-c2c(-c3ccc(OC)c(O)c3)cnc(N3CCC(NCc4ccc(/C=C/C(=O)NO)cc4)CC3)c2C#N)cn1` [Example 253, Methyl (E)-3′-cyano-5′-(3-hydroxy-4-methoxyphenyl)-2′-(4-((4-(3-(hydroxyamino)-3-oxoprop-1-en-1-yl)benzyl)amino)piperidin-1-yl)-[3,4′-bipyridine]-6-carboxylate formate], the IC50 in assay [1] came to 342 nM; in assay [2], 13.2 nM; in assay [5] it was 5.25 nM; in assay [4] it was 0.3 nM.

As to `COc1ccc(-c2cnc(N3CCC(NCc4ccc(/C=C/C(=O)NO)cc4)CC3)c(C)c2-c2ccc(C#N)nc2)cc1O` [Example 254, (E)-3-(4-(((1-(6-Cyano-5′-(3-hydroxy-4-methoxyphenyl)-3′-methyl-[3,4′-bipyridin]-2′-yl)piperidin-4-yl)amino)methyl)phenyl)-N-hydroxyacrylamide formate], the IC50 is 35.4 nM in assay [1], 5.77 nM in assay [2], 4.69 nM in assay [5] and 0.41 nM in assay [4].

With `COc1ccc(-c2cnc(N3CCC(NCc4ccc(/C=C/C(=O)NO)cc4)CC3)c(C#N)c2-c2cnc(C#N)cn2)cc1O` [Example 256, (E)-3-(4-(((1-(3-Cyano-4-(5-cyanopyrazin-2-yl)-5-(3-hydroxy-4-methoxyphenyl)pyridin-2-yl)piperidin-4-yl)amino)methyl)phenyl)-N-hydroxyacrylamide formate], the IC50 stood at 28.8 nM in assay [1], 8.48 nM in assay [2], 8.63 nM in assay [5] and 0.26 nM in assay [4].

On to `COc1ccc(-c2cnc(N3CCC(NCc4ccc(/C=C/C(=O)NO)c(OC)c4)CC3)c(C#N)c2-c2ccc(C#N)nc2)cc1O` [Example 257, (E)-3-(4-(((1-(3′,6-Dicyano-5′-(3-hydroxy-4-methoxyphenyl)-[3,4′-bipyridin]-2′-yl)piperidin-4-yl)amino)methyl)-2-methoxyphenyl)-N-hydroxyacrylamide formate], for which the IC50 is 7.93 nM in assay [1], 7.61 nM in assay [2], 11.2 nM in assay [5] and 0.59 nM in assay [4].

`COc1ccc(-c2cnc(N3CCC(NCc4ccc(/C=C/C(=O)NO)cc4)CC3)c(C#N)c2-c2ccc(C(N)=O)nc2)cc1O` [Example 259, (E)-3′-Cyano-5′-(3-hydroxy-4-methoxyphenyl)-2′-(4-((4-(3-(hydroxyamino)-3-oxoprop-1-en-1-yl)benzyl)amino)piperidin-1-yl)-[3,4′-bipyridine]-6-carboxamide formate]: the IC50 in assay [1] is 81.2 nM; in assay [2] it was 7.2 nM; in assay [5] it was 7.48 nM; in assay [4] it was 0.25 nM.

As for `COc1ccc(-c2cnc(N3CCC(NCc4ccc(/C=C/C(=O)NO)cc4)CC3)c(CC#N)c2-c2ccc(C#N)nc2)cc1O` [Example 261, (E)-3-(4-(((1-(6-Cyano-3′-(cyanomethyl)-5′-(3-hydroxy-4-methoxyphenyl)-[3,4′-bipyridin]-2′-yl)piperidin-4-yl)amino)methyl)phenyl)-N-hydroxyacrylamide formate], the 50% inhibitory concentration (IC50) in assay [1] was 3.18 nM; in assay [2], 19 nM; in assay [5] it was 8.47 nM; in assay [4], 1.42 nM.

Turning to `COc1cc(F)c(-c2cnc(N3CCC(NCc4ccc(/C=C/C(=O)NO)cc4)CC3)c(C)c2-c2ccc(C#N)nc2)cc1O` [Example 262, (E)-3-(4-(((1-(6-Cyano-5′-(2-fluoro-5-hydroxy-4-methoxyphenyl)-3′-methyl-[3,4′-bipyridin]-2′-yl)piperidin-4-yl)amino)methyl)phenyl)-N-hydroxyacrylamide formate], the IC50 in assay [1] is 7.04 nM; in assay [2], 11.8 nM; in assay [5] it was 11.1 nM; in assay [4], 0.61 nM.

For `COc1ccc(-c2ccc(N3CCC(NCc4ccc(/C=C/C(=O)NO)cc4)CC3)c(C#N)c2-c2ccc(C#N)nc2)cc1O` [Example 267, (E)-3-(4-(((1-(3-Cyano-2-(6-cyanopyridin-3-yl)-3′-hydroxy-4′-methoxy-[1,l′-biphenyl]-4-yl)piperidin-4-yl)amino)methyl)phenyl)-N-hydroxyacrylamide formate], the IC50 in assay [1] amounted to 7.36 nM; in assay [2] it was 7.49 nM; in assay [5], 13.6 nM; in assay [4], 1.93 nM.

Take `COc1ccc(-c2cnc(N3CCC(NCc4ccc(/C=C/C(=O)NO)cc4F)CC3)c(F)c2-c2ccc(C#N)nc2)cc1O` [Example 269, (E)-3-(4-(((1-(6-Cyano-3′-fluoro-5′-(3-hydroxy-4-methoxyphenyl)-[3,4′-bipyridin]-2′-yl)piperidin-4-yl)amino)methyl)-3-fluorophenyl)-N-hydroxyacrylamide hydrochloride]: the IC50 in assay [1] turned out to be 193 nM; in assay [2], 2.66 nM; in assay [5], 1.87 nM; in assay [4], 0.93 nM.

`COc1cc(F)c(-c2cnc(N3CCC(NCc4ccc(/C=C/C(=O)NO)cc4)CC3)c(F)c2-c2ccc(C#N)nc2)cc1O` [Example 270, (E)-3-(4-(((1-(6-Cyano-3′-fluoro-5′-(2-fluoro-5-hydroxy-4-methoxyphenyl)-[3,4′-bipyridin]-2′-yl)piperidin-4-yl)amino)methyl)phenyl)-N-hydroxyacrylamide formate]: the IC50 in assay [1] was determined as 24.8 nM; in assay [2], 4.88 nM; in assay [5], 3.24 nM; in assay [4], 0.32 nM.

For the compound `COc1ccc(-c2cnc(N3CCC(NCc4ccc(/C=C(\F)C(=O)NO)cc4)CC3)c(F)c2-c2ccc(C#N)nc2)cc1O` [Example 271, (Z)-3-(4-(((1-(6-Cyano-3′-fluoro-5′-(3-hydroxy-4-methoxyphenyl)-[3,4′-bipyridin]-2′-yl)piperidin-4-yl)amino)methyl)phenyl-2-fluoro-N-hydroxyacrylamide formate], the IC50 in assay [1] was determined as 35.1 nM; in assay [2], 2.19 nM; in assay [5], 1.8 nM; in assay [4] it was 0.83 nM.

Consider `COc1ccc(-c2cnc(N3CCC(NCc4ccc(/C=C/C(=O)NO)cc4)CC3)cc2-c2ccc(C#N)nc2)cc1O` [Example 272, ((E)-3-(4-(((1-(6-Cyano-5′-(3-hydroxy-4-methoxyphenyl)-[3,4′-bipyridin]-2′-yl)piperidin-4-yl)amino)methyl)phenyl)-N-hydroxyacrylamide formate], for which the IC50 in assay [1] was 25.2 nM; in assay [2] it was 16.8 nM; in assay [5] it was 13.3 nM; in assay [4], 0.3 nM.

The values are drawn from US20250304549A1, “HYDROXYAMIDE DERIVATIVE AND USE THEREOF” (SICHUAN HUIYU PHARMACEUTICAL CO., LTD., priority 2022, published 2025).
